Assay results as given in ChEMBL document CHEMBL2331254, “Pyrrolopyrimidine inhibitors of DNA gyrase B (GyrB) and topoisomerase IV (ParE), Part II: development of inhibitors with broad spectrum, Gram-negative antibacterial activity” (Bioorg Med Chem Lett, 2013).
pKi: −log10 of the molar value. In brackets after ≈: the same amount, converted by molar mass.

Tests used:
[1] = Inhibition of Escherichia coli parE assessed as release of inorganic phosphate from ATP hydrolysis after 30 mins by coupled spectrophotometric assay
[2] = Inhibition of Escherichia coli GyrB assessed as release of inorganic phosphate from ATP hydrolysis after 30 mins by coupled spectrophotometric assay
[3] = system: Pseudomonas aeruginosa; test: Antibacterial activity against Pseudomonas aeruginosa PAO1 by broth microdilution method; type: functional
[4] = system: Acinetobacter baumannii; test: Antibacterial activity against Acinetobacter baumannii ATCC 19606 by broth microdilution method; type: functional; conditions: ATCC 19606 = CIP 70.34 = JCM 6841
[5] = system: Klebsiella pneumoniae; test: Antibacterial activity against Klebsiella pneumoniae ATCC 700603 by broth microdilution method; type: functional
[6] = system: Escherichia coli; test: Antibacterial activity against wild type Escherichia coli ATCC 25922 by broth microdilution method in presence of 20% mouse serum; type: functional
[7] = system: Haemophilus influenzae; test: Antibacterial activity against Haemophilus influenzae ATCC 49247 by broth microdilution method; type: functional
[8] = system: Streptococcus pneumoniae; test: Antibacterial activity against Streptococcus pneumoniae ATCC 51916 by broth microdilution method; type: functional
[9] = system: Staphylococcus aureus; test: Antibacterial activity against Staphylococcus aureus ATCC 13709 by broth microdilution method in presence of 20% mouse serum; type: functional
[10] = Inhibition of Francisella tularensis parE assessed as release of inorganic phosphate from ATP hydrolysis after 30 mins by coupled spectrophotometric assay
[11] = Inhibition of Francisella tularensis GyrB assessed as release of inorganic phosphate from ATP hydrolysis after 30 mins by coupled spectrophotometric assay
[12] = system: Escherichia coli; test: Antibacterial activity against Escherichia coli BW25113 harboring deltatolC by broth microdilution method; type: functional
[13] = system: Escherichia coli; test: Antibacterial activity against permeabilized Escherichia coli IBAS849 by broth microdilution method; type: functional
[14] = system: Escherichia coli; test: Antibacterial activity against wild type Escherichia coli ATCC 25922 by broth microdilution method; type: functional
[15] = system: Staphylococcus aureus; test: Antibacterial activity against Staphylococcus aureus ATCC 13709 by broth microdilution method; type: functional

| Structure (SMILES) | pKi [1] | pKi [2] | MIC [3] | MIC [4] | MIC [5] | MIC [6] | MIC [7] | MIC [8] | MIC [9] | pKi [10] | pKi [11] | MIC [12] | MIC [13] | MIC [14] | MIC [15] |
| --- | --- | --- | --- | --- | --- | --- | --- | --- | --- | --- | --- | --- | --- | --- | --- |
| CCc1[nH]c2nc(Oc3cncnc3)nc(N3C[C@@H]4[C@@H](N)[C@@H]4C3)c2c1Cl | 8.47 | 9.40 | 32 µg/mL (≈ 86.1 µM) | 16 µg/mL (≈ 43 µM) | 64 µg/mL (≈ 172 µM) | 2 µg/mL | 4 µg/mL (≈ 10.8 µM) | 2 µg/mL (≈ 5.38 µM) | 2 µg/mL | 8.74 | > 9.52 | 2 µg/mL (≈ 5.38 µM) | 1 µg/mL (≈ 2.69 µM) | 4 µg/mL (≈ 10.8 µM) | 1 µg/mL (≈ 2.69 µM) |
| CCc1[nH]c2nc(Sc3cnc4cccnc4c3)nc(N3C[C@@H]4[C@@H](N)[C@@H]4C3)c2c1Cl | > 9.00 | > 9.52 | 8 µg/mL (≈ 18.3 µM) | 8 µg/mL (≈ 18.3 µM) | > 64 µg/mL | 8 µg/mL | 4 µg/mL (≈ 9.13 µM) | 0.13 µg/mL (≈ 0.297 µM) | 0.5 µg/mL | 9.22 | – | 0.25 µg/mL (≈ 0.571 µM) | 1 µg/mL (≈ 2.28 µM) | 4 µg/mL (≈ 9.13 µM) | ≤ 0.06 µg/mL |
